Measurements taken from patent US8957033B2, “Inhibitor of sodium-dependent glucose transport protein and preparation method therefor and use thereof” (Beijing Prelude Pharm. SCI. & Tech. Co., Ltd., priority 2011, dated 2015).
Like-named read-outs stand apart in the source and are kept apart here.

Experiments:
[1] = Pharmacokinetic test in vivo in SD rats; parameters: species or system male SD rats; conditions: 10 mg/kg; for AUC(0-inf) / AUC(0-t) / C0 / MRT / half-life / Tmax / bioavailability: male, rat, plasma; for bioavailability: read-out: F (oral bioavailability)
Description: Compound 1, compound 2 and compound 3 were respectively dissolved in blank solution (5% 1-methyl-2-pyrrolidinone, 20% PEG-400 and 20 mM sodium diphosphate) in a concentration of 10 g/L.
Experimental animals are male SD rats of 6-8 weeks old, with weight of 190-215 g, which were purchased from Beijing Vital River Laboratory Animal Technology Co., Ltd. The SD rats were randomly divided into seven groups based on body weight, each group containing three rats. Wherein group 1 is the blank control group in which the blank solution was administrated intravenously.
Before the pharmacokinetic test, the SD rats were fasted for 16 hours, and then administrated intravenously (1 mL/kg; 10 mg/kg) or orally (1 mL/kg; 10 mg/kg) with single dose of the compound or blank solution according to Table 4. After administration 200 uL blood samples were collected regularly through jugular vein puncture, wherein for the group of animals administered intravenously, blood samples were collected at 0 minute, 15 minutes, 30 minutes, 1 hour, 2 hours, 4 hours, 8 hours and 24 hours after administration; for the group of animals administered orally, blood samples were collected at 0 minute, 15 minutes, 30 minutes, 45 minutes, 75 minutes, 135 minutes, 4 hours, 8 hours and 24 hours after administration. The blood samples were collected in a sample tube with EDTA, and immediately centrifuged under 4000 rpm for 0.5 minutes at 4° C., and then the plasma was transferred to another sample tube and stored at −20° C.
The method and instruments for pharmacokinetics test of samples were as follows: • HPLC: Shimadzu (DGV-20A3, Serial NO: SSI-3-0536; LC-20AD Serial NO: • L20104551674 USB and L20104551673 USB), CTC Analytics HTC PAL System (Serial NO: 4353); • MS: AB API4000 Q Trap LC/MS/MS instrument (Serial NO. AR19020706) • Column: Phenomenex Luna 5μ C18 (2.0×50 mm) • Mobile phase: 100% acetonitrile (2 mM ammonium acetate) and 100% water (2 mM ammonium acetate) • Quantitative Method: internal standard method

male SD rats [2] = assay: Oral glucose tolerance test, glucose 8 hours after administration (Example 6), blood glucose; assay type: in vivo; conditions: for Blood glucose / ΔAUC: 10 mg/kg orally, Mean ± SD; for Effect on blood glucose level (in words): glucose at 8 hours after administration, compared with the blank control group
Description: (§1) Preparation of the administrated drugs, and grouping and administration of the animals were the same as those in Example 5.
(§2) Before the test, the rats were fasted for 16 hours and then administrated orally with the blank solution or compounds. The blood glucose baseline level was measured at 8 hours after administration, then the rats in each group were administrated orally with 50% glucose aqueous solution in an amount of 2 g/kg. The blood samples (1 drop) were taken from tail veins of rats in each group at 15 minutes, 30 minutes, 1 hour and 2 hours after oral administration of glucose, and the blood glucose level was measured by using Accu-Chek Aviva system.
(§3) Statistical analysis was conducted and the significance level was set to be P<0.05. The mean and standard deviation were calculated for all measurement parameters which were designed for study. One-way analysis of variance (ANOVA) was performed by software GraphPad Prism 5.0 after multiple comparisons among groups.

[3] = male, 2 μM
Description: (§4) 1) Master solution was prepared according to Table 1, and then the test compounds and control compound were added into the master solution, with the final concentration of these compounds in the reaction system being 2 μM. Then the mixed solution was preheated at 37° C. for 2 minutes.
(§5) 2) NADPH was added into the mixed solution with the final concentration of NADPH being 1 mM, and then the reaction system was incubated at 37° C. The blank control was also added with the same volume of ultrapure water instead of NADPH.
(§6) 3) 50 μL aliquots were taken out from the reaction system at 0, 15, 30, 45 and 60 minutes, and added with 3 volumes of cold methanol to terminate the reaction. The aliquot was centrifugated for 10 minutes under 16000 g to precipitate proteins. 100 μL of supernatant was used for LC/MS/MS analysis, to determine the amounts of the remaining test compounds and the control compound. The aliquots were detected in duplicate.
(§7) The instruments and conditions for LC analysis were as follows:
(§8) Shimadzu (Degasser DGU—20A3, Solvent Delivery Unit LC—20ADXR, System Controller CBM—20A, Column Oven CTO—10ASVP), CTC Analytics HTC PAL—XT System
(§9) Column: Phenomenex 5μ C 18 (2) (2.0×50 mm)
(§10) The instrument and conditions for MS/MS analysis were as follows: • AB API4000 LC/MS/MS instrument • Source: Turbo spray • Ionization mode: ESI • Type of scan: MRM • Collision gas: 6 L/min; curtain gas: 30 L/min; atomized gas: 50 L/min; auxiliary gas: 50 L/min; temperature: 500° C.; spray voltage: 4500 v.

male SD rats [4] = assay: Urine glucose at end of glucose tolerance test (Example 6); assay type: in vivo; conditions: for Urine glucose: 10 mg/kg orally, urine collected at end of glucose tolerance test, Mean ± SD
Description: as §1, §2
At the end of the test, urine of the rats in each group was collected, and then the urine glucose level was analyzed by using TOSHIBA TBA-40FR automatic biochemical analyzer.
as §3

[5] = 2 μM
Description: as §4, §5, §6, §7, §8, §9, §10

male SD rats [6] = assay: Oral glucose tolerance test, glucose 15 minutes after administration (Example 5); assay type: in vivo; conditions: 10 mg/kg orally; for Blood glucose / ΔAUC: Mean ± SD; for Effect on blood glucose level (in words): compared with the blank control group
Description: Compound 1, compound 2 and compound 3 were respectively dissolved in blank solutions (5% 1-methyl-2-pyrrolidinone, 20% PEG-400 and 20 mM sodium diphosphate) in the concentration of 10 g/L.
Experimental animals are male SD rats of 6-8 weeks old, with weight of 190-215 g, which were purchased from Beijing Vital River Laboratory Animal Technology Co., Ltd. The SD rats were randomly divided into four groups based on body weight, each group containing three rats. Wherein group 1 is the blank control group in which the rats were administrated with the above blank solution.
as §2, with “15 minutes” for “8 hours”
as §3

[7] = Stability test in vitro, male rat liver microsomes with NADPH; conditions: 2 μM, NADPH 1 mM, 37° C.
Description: as §4, §5, §6, §7, §8, §9, §10

[8] = Stability test in vitro, human liver microsomes with NADPH; conditions: 2 μM, NADPH 1 mM, 37° C.
Description: as §4, §5, §6, §7, §8, §9, §10

[9] = iv, administrated intravenously
[10] = glucose 2 g/kg 8 hours after administration, 15 minutes after glucose
[11] = glucose 2 g/kg 8 hours after administration, 30 minutes after glucose
[12] = glucose 2 g/kg 8 hours after administration, 1 hour after glucose
[13] = glucose 2 g/kg 8 hours after administration, 2 hours after glucose
[14] = glucose 2 g/kg 8 hours after administration
[15] = time 0 (baseline 8 hours after administration, before glucose 2 g/kg)
[16] = glucose 2 g/kg 15 minutes after administration, 15 minutes after glucose
[17] = glucose 2 g/kg 15 minutes after administration, 30 minutes after glucose
[18] = glucose 2 g/kg 15 minutes after administration, 1 hour after glucose
[19] = glucose 2 g/kg 15 minutes after administration, 2 hours after glucose
[20] = glucose 2 g/kg 15 minutes after administration
[21] = time 0 (baseline 15 minutes after administration, before glucose 2 g/kg)

Row | Compound | CI_obs ([1]; administrated intravenously) | Vss_obs ([1]; administrated intravenously) | AUC(0-inf) [1, 9] | AUC(0-t) [1, 9] | C0 [1, 9] | MRT [1, 9] | half-life [1, 9] | AUC(0-inf) ([1]; po, administrated orally) | AUC(0-t) ([1]; po, administrated orally) | C0 ([1]; po, administrated orally) | Tmax ([1]; po, administrated orally) | half-life ([1]; po, administrated orally) | bioavailability ([1]; po, administrated orally) | Blood glucose (male SD rats [2]; [10]) | Blood glucose (male SD rats [2]; [11]) | Blood glucose (male SD rats [2]; [12]) | Blood glucose (male SD rats [2]; [13]) | ΔAUC (male SD rats [2]; [14]) | Blood glucose (male SD rats [2]; [15]) | Urine glucose (male SD rats [4]) | other results
1 | CCOc1ccc(Cc2cc([C@@H]3O[C@H](CO)[C@@H](O)[C@H](O)[C@H]3O)ccc2Cl)cc1 [Compound 1, Dapagliflozin, reference compound] | 2.99 mL/min/kg | 0.903 L/kg | 56500 ng·h/mL | 55800 ng·h/mL | 11000 ng/mL | 4.76 h | 3.95 h | 39100 ng·h/mL | 41400 ng·h/mL | 3880 ng/mL | 1.25 h | 4.14 h | 69.1% | 96.60 ± 21.70 mg/dL | 131.40 ± 8.25 mg/dL | 123.60 ± 4.53 mg/dL | 72.60 ± 6.81 mg/dL | 107.90 ± 8.53 mg·h/dL | 50.40 ± 9.52 mg/dL | 294.90 ± 12.29 mmol/L | Residual percentage of compounds in rat liver microsome ([3]; 0 min): 100.00%; Residual percentage of compounds in rat liver microsome ([3]; 15 min): 88.37%; Residual percentage of compounds in rat liver microsome ([3]; 30 min): 90.68%; Residual percentage of compounds in rat liver microsome ([3]; 45 min): 83.66%; Residual percentage of compounds in human liver microsome ([5]; 0 min): 100.00%; Residual percentage of compounds in human liver microsome ([5]; 15 min): 100.36%; Residual percentage of compounds in human liver microsome ([5]; 30 min): 102.10%; Residual percentage of compounds in human liver microsome ([5]; 45 min): 101.77%; Blood glucose (male SD rats [6]; [16]): 97.2 ± 17.36 mg/dL; Blood glucose (male SD rats [6]; [17]): 102.6 ± 20.44 mg/dL; Blood glucose (male SD rats [6]; [18]): 94.8 ± 17.11 mg/dL; Blood glucose (male SD rats [6]; [19]): 72.0 ± 10.95 mg/dL; ΔAUC (male SD rats [6]; [20]): 20.2 ± 19.32 mg·h/dL; Blood glucose (male SD rats [6]; [21]): 85.2 ± 4.53 mg/dL
2 | OC[C@H]1O[C@@H](c2ccc(Cl)c(Cc3ccc(OCC(F)(F)F)cc3)c2)[C@H](O)[C@@H](O)[C@@H]1O [Compound 2] | 1.59 mL/min/kg | 1.18 L/kg | 107000 ng·h/mL | 87800 ng·h/mL | 11300 ng/mL | 7.35 h | 9.8 h | 193000 ng·h/mL | 77300 ng·h/mL | 5090 ng/mL | 1.25 h | 30 h | 88% | 103.20 ± 12.64 mg/dL | 154.20 ± 2.75 mg/dL | 141.00 ± 2.08 mg/dL | 85.20 ± 1.04 mg/dL | 115.00 ± 3.55 mg·h/dL | 62.40 ± 2.75 mg/dL | 197.90 ± 56.27 mmol/L | Residual percentage of compounds in rat liver microsome ([7]; sampling time 0 minute): 100.00%; Residual percentage of compounds in rat liver microsome ([7]; sampling time 15 minutes): 88.20%; Residual percentage of compounds in rat liver microsome ([7]; sampling time 30 minutes): 94.51%; Residual percentage of compounds in rat liver microsome ([7]; sampling time 45 minutes): 91.65%; Residual percentage of compounds in rat liver microsome ([7]; sampling time 60 minutes): 88.27%; Effect on blood glucose level (in words) (male SD rats [2]): effect of lowering blood glucose level; Urine glucose level (in words) (male SD rats [4]; compared to the blank control group, oral administration): significantly increased; Residual percentage of compounds in human liver microsome ([8]; sampling time 0 minute): 100.00%; Residual percentage of compounds in human liver microsome ([8]; sampling time 15 minutes): 80.84%; Residual percentage of compounds in human liver microsome ([8]; sampling time 30 minutes): 78.78%; Residual percentage of compounds in human liver microsome ([8]; sampling time 45 minutes): 76.73%; Residual percentage of compounds in human liver microsome ([8]; sampling time 60 minutes): 75.34%; Blood glucose (male SD rats [6]; [16]): 126.6 ± 26.11 mg/dL; Blood glucose (male SD rats [6]; [17]): 143.4 ± 24.44 mg/dL; Blood glucose (male SD rats [6]; [18]): 138.6 ± 17.17 mg/dL; Blood glucose (male SD rats [6]; [19]): 97.2 ± 13.59 mg/dL; ΔAUC (male SD rats [6]; [20]): 77.2 ± 20.44 mg·h/dL; Blood glucose (male SD rats [6]; [21]): 85.8 ± 2.75 mg/dL; Effect on blood glucose level (in words) (male SD rats [6]): effect of lowering blood glucose level
3 | OC[C@H]1O[C@@H](c2ccc(Cl)c(C(F)(F)c3ccc(OCC(F)(F)F)cc3)c2)[C@H](O)[C@@H](O)[C@@H]1O [Compound 3] | 0.75 mL/min/kg | 1.56 L/kg | 260000 ng·h/mL | 113000 ng·h/mL | 6640 ng/mL | 10.1 h | 28.3 h | 44700 ng·h/mL | 20800 ng·h/mL | 1400 ng/mL | 8 h | 20.4 h | 17.2% | 148.80 ± 9.06 mg/dL | 198.60 ± 8.51 mg/dL | 183.00 ± 12.25 mg/dL | 128.40 ± 3.75 mg/dL | 144.40 ± 18.72 mg·h/dL | 90.00 ± 1.80 mg/dL | 0.10 ± 0.17 mmol/L | Residual percentage of compounds in rat liver microsome ([7]; sampling time 0 minute): 100.00%; Residual percentage of compounds in rat liver microsome ([7]; sampling time 15 minutes): 99.00%; Residual percentage of compounds in rat liver microsome ([7]; sampling time 30 minutes): 92.49%; Residual percentage of compounds in rat liver microsome ([7]; sampling time 45 minutes): 97.25%; Residual percentage of compounds in rat liver microsome ([7]; sampling time 60 minutes): 108.11%; Effect on blood glucose level (in words) (male SD rats [2]): effect of lowering blood glucose level; Residual percentage of compounds in human liver microsome ([8]; sampling time 0 minute): 100.00%; Residual percentage of compounds in human liver microsome ([8]; sampling time 15 minutes): 105.74%; Residual percentage of compounds in human liver microsome ([8]; sampling time 30 minutes): 98.43%; Residual percentage of compounds in human liver microsome ([8]; sampling time 45 minutes): 101.18%; Residual percentage of compounds in human liver microsome ([8]; sampling time 60 minutes): 97.89%; Blood glucose (male SD rats [6]; [16]): 143.4 ± 18.91 mg/dL; Blood glucose (male SD rats [6]; [17]): 172.8 ± 25.01 mg/dL; Blood glucose (male SD rats [6]; [18]): 148.2 ± 11.98 mg/dL; Blood glucose (male SD rats [6]; [19]): 88.8 ± 17.11 mg/dL; ΔAUC (male SD rats [6]; [20]): 87.6 ± 15.90 mg·h/dL; Blood glucose (male SD rats [6]; [21]): 90.0 ± 13.59 mg/dL; Effect on blood glucose level (in words) (male SD rats [6]): effect of lowering blood glucose level
